# Legend:
# Assay in all cases: relative viability (nuclei count vs DMSO), 5 days (fraction); higher = more cells survive
# IPA-3 + Navitoclax = compound: C1=CC=C2C(=C1)C=CC(=C2SSC3=C(C=CC4=CC=CC=C43)O)O [IPA-3] + CC1(C)CCC(c2ccc(Cl)cc2)=C(CN2CCN(c3ccc(C(=O)NS(=O)(=O)c4ccc(N[C@H](CCN5CCOCC5)CSc5ccccc5)c(S(=O)(=O)C(F)(F)F)c4)cc3)CC2)C1 [Navitoclax] (partner 0.5 µM)
# Procedure, shortened: (§1)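 Cells from lung cancer lines were seeded into 1536-well plates and, one day later, dosed by pin tool. Treatments were either a single drug or a fixed dose of an anchor drug with five library-drug doses (not always all listed) in √10 steps. After 5 days, nuclei were stained in a one-step fixation (final 0.05% Triton X-100, 1% formaldehyde, 1 ug/ml Hoechst) and counted on 4× images, and relative viability is the treated-to-vehicle nuclei ratio, as the median of duplicate plates.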
# Doramapimod + OSI-027 = compound: Cc1ccc(-n2nc(C(C)(C)C)cc2NC(=O)Nc2ccc(OCCN3CCOCC3)c3ccccc23)cc1 [Doramapimod] + COc1cccc2cc(-c3nc([C@H]4CC[C@H](C(=O)O)CC4)n4ncnc(N)c34)[nH]c12 [OSI-027] (partner 0.5 µM)
# Procedure, shortened: as §1
# RAF265 + Trametinib = compound: Cn1c(Nc2ccc(C(F)(F)F)cc2)nc2cc(Oc3ccnc(-c4ncc(C(F)(F)F)[nH]4)c3)ccc21 [RAF265] + CC(=O)Nc1cccc(-n2c(=O)n(C3CC3)c(=O)c3c(Nc4ccc(I)cc4F)n(C)c(=O)c(C)c32)c1 [Trametinib] (partner 0.02 µM)
# Procedure, shortened: as §1
# RAF265 + Linsitinib = compound: Cn1c(Nc2ccc(C(F)(F)F)cc2)nc2cc(Oc3ccnc(-c4ncc(C(F)(F)F)[nH]4)c3)ccc21 [RAF265] + C[C@]1(O)C[C@@H](c2nc(-c3ccc4ccc(-c5ccccc5)nc4c3)c3c(N)nccn32)C1 [Linsitinib] (partner 1 µM)
# Procedure, shortened: as §1
Cell Line,relative viability (IPA-3 + Navitoclax; first compound 0.2 µM),relative viability (IPA-3 + Navitoclax; first compound 0.6325 µM),relative viability (IPA-3 + Navitoclax; first compound 2 µM),relative viability (IPA-3 + Navitoclax; first compound 6.325 µM),relative viability (IPA-3 + Navitoclax; first compound 20 µM),relative viability (Doramapimod + OSI-027; first compound 0.02 µM),relative viability (Doramapimod + OSI-027; first compound 0.06325 µM),relative viability (Doramapimod + OSI-027; first compound 0.2 µM),relative viability (Doramapimod + OSI-027; first compound 0.6325 µM),relative viability (Doramapimod + OSI-027; first compound 2 µM),relative viability (RAF265 + Trametinib; first compound 0.01 µM),relative viability (RAF265 + Trametinib; first compound 0.03162 µM),relative viability (RAF265 + Trametinib; first compound 0.1 µM),relative viability (RAF265 + Trametinib; first compound 0.3162 µM),relative viability (RAF265 + Trametinib; first compound 1 µM),relative viability (RAF265 + Linsitinib; first compound 0.01 µM),relative viability (RAF265 + Linsitinib; first compound 0.03162 µM),relative viability (RAF265 + Linsitinib; first compound 0.1 µM),relative viability (RAF265 + Linsitinib; first compound 0.3162 µM),relative viability (RAF265 + Linsitinib; first compound 1 µM)
NCI-H596,0.969,1.08,0.985,0.894,1.16,0.653,0.658,0.665,0.783,0.57,0.836,0.75,0.813,0.826,0.638,1.05,0.97,1.1,1.09,0.657
RERF-LC-KJ,1.53,0.879,1.1,0.877,1.06,0.624,0.543,0.603,0.6,0.554,0.877,0.764,0.867,0.638,0.546,0.915,0.835,0.95,0.859,0.636
NCI-H322M,1.29,1.12,1.17,1.25,1.29,0.577,0.579,0.562,0.522,0.527,0.496,0.421,0.486,0.507,0.409,0.929,0.807,0.662,0.377,0.256
COR-L 105,0.866,1.07,0.925,0.644,0.782,0.799,0.745,0.703,0.771,0.612,0.47,0.428,0.429,0.38,0.348,1.17,0.882,0.976,0.725,0.504
NCI-H1993,0.973,0.911,0.896,0.894,0.838,0.573,0.566,0.59,0.495,0.522,0.585,0.619,0.542,0.384,0.435,0.68,0.763,0.66,0.713,0.722
NCI-H1437,1.16,0.997,1.19,1.02,1.15,0.953,0.883,0.852,0.938,0.866,0.544,0.552,0.505,0.716,0.493,1.09,1.01,1.08,1,0.945
NCI-H838,1.35,1.07,1.24,1.1,1.25,0.383,0.364,0.376,0.369,0.326,0.542,0.511,0.518,0.462,0.39,1.12,1.01,1.02,1.03,0.77
NCI-H1666,1.07,0.981,1.08,0.962,0.863,0.974,0.852,0.846,0.787,0.772,0.89,0.852,0.784,0.839,0.656,0.894,0.923,0.888,0.854,0.565
NCI-H1944,1.07,0.899,1.1,1.07,1.02,0.365,0.451,0.352,0.492,0.286,0.454,0.453,0.386,0.324,0.246,1.25,1.37,1.08,0.64,0.716
NCI-H2023,1.1,0.977,0.984,1.04,0.967,0.362,0.362,0.369,0.479,0.301,0.608,0.508,0.533,0.55,0.266,0.588,0.743,0.776,0.644,0.424
NCI-H1755,1.07,1.01,1,1.03,1.02,0.709,0.659,0.727,0.669,0.586,0.753,0.727,0.688,0.647,0.467,0.959,1.06,0.988,0.825,0.579
NCI-H23,1.14,0.709,0.858,0.991,1.1,0.646,0.601,0.663,0.491,0.628,0.404,0.262,0.239,0.239,0.17,0.668,0.541,0.437,0.321,0.202
201T,1.21,1.19,1.21,1.22,1.18,0.629,0.785,0.71,0.782,0.781,0.781,0.696,0.717,0.748,0.716,1.04,0.982,0.994,0.89,0.885
NCI-H1734,1.1,0.834,0.781,0.844,1.02,0.55,0.508,0.537,0.589,0.448,0.722,0.526,0.564,0.535,0.276,1.02,0.883,0.717,0.676,0.421
NCI-H520,1.16,0.971,0.863,1.02,1.12,0.229,0.276,0.223,0.245,0.232,0.684,0.65,0.508,0.519,0.338,0.941,0.949,0.939,0.912,0.631
NCI-H1355,1.08,0.867,0.999,1.03,1.09,0.412,0.409,0.381,0.361,0.341,0.438,0.355,0.383,0.283,0.206,0.791,0.67,0.72,0.458,0.298

Cell Line,relative viability (IPA-3 + Navitoclax; first compound 0.2 µM),relative viability (IPA-3 + Navitoclax; first compound 0.6325 µM),relative viability (IPA-3 + Navitoclax; first compound 2 µM),relative viability (IPA-3 + Navitoclax; first compound 6.325 µM),relative viability (IPA-3 + Navitoclax; first compound 20 µM),relative viability (Doramapimod + OSI-027; first compound 0.02 µM),relative viability (Doramapimod + OSI-027; first compound 0.06325 µM),relative viability (Doramapimod + OSI-027; first compound 0.2 µM),relative viability (Doramapimod + OSI-027; first compound 0.6325 µM),relative viability (Doramapimod + OSI-027; first compound 2 µM),relative viability (RAF265 + Trametinib; first compound 0.01 µM),relative viability (RAF265 + Trametinib; first compound 0.03162 µM),relative viability (RAF265 + Trametinib; first compound 0.1 µM),relative viability (RAF265 + Trametinib; first compound 0.3162 µM),relative viability (RAF265 + Trametinib; first compound 1 µM),relative viability (RAF265 + Linsitinib; first compound 0.01 µM),relative viability (RAF265 + Linsitinib; first compound 0.03162 µM),relative viability (RAF265 + Linsitinib; first compound 0.1 µM),relative viability (RAF265 + Linsitinib; first compound 0.3162 µM),relative viability (RAF265 + Linsitinib; first compound 1 µM)
NCI-H1915,0.794,0.817,0.782,0.782,0.738,0.591,0.622,0.671,0.606,0.561,0.327,0.275,0.23,0.151,0.1,1.1,1.01,1.03,0.653,0.323
BEN,0.0641,0.0847,0.0621,0.0718,0.0865,0.317,0.309,0.33,0.236,0.316,1.12,1.25,1.05,1.17,0.908,0.897,1.01,1.12,0.939,0.791
NCI-H3122,0.994,0.998,1.01,1.12,1.02,0.956,0.853,0.938,1.04,1.01,0.26,0.203,0.21,0.208,0.173,1.02,1.2,0.947,1.02,0.841
SK-MES-1,1.26,1.12,1.3,,1.04,0.643,0.571,0.565,0.573,0.521,0.601,0.531,0.443,0.317,0.285,1.14,0.926,0.947,0.562,0.249
HOP-62,1.08,0.9,1,0.943,1.34,0.828,0.81,0.906,0.923,0.741,0.468,0.404,0.406,0.379,0.218,0.89,,1.07,0.976,0.604
HCC-366,1.18,1.01,1.19,1.03,1.18,0.837,0.918,0.937,1.08,0.853,0.414,0.302,0.264,0.251,0.165,0.674,0.69,0.881,0.748,0.459
NCI-H2347,0.962,0.792,0.633,0.88,0.988,0.509,,0.474,0.452,0.423,0.266,0.292,0.283,0.22,0.227,1.2,0.923,0.924,0.744,0.544
LXF-289,0.992,0.911,1.01,0.957,1.04,0.765,0.762,0.72,0.686,0.605,0.667,0.692,0.551,0.488,0.339,0.916,0.919,0.947,0.815,0.792
NCI-H1793,0.518,0.37,0.395,0.44,0.594,0.238,0.262,0.278,0.36,0.242,0.403,0.44,0.303,0.232,0.237,0.794,0.767,0.779,0.46,0.376
LU99A,0.866,0.86,0.819,0.781,0.889,0.299,0.341,0.261,0.344,0.272,0.551,0.469,0.314,0.288,0.21,0.471,0.423,0.323,0.308,0.273
PC-14,1.09,1.03,0.994,0.988,0.974,0.933,0.671,0.872,1.01,0.635,0.814,0.711,0.716,,0.447,1.02,0.968,1.02,,0.788
NCI-H2085,1.15,0.985,1.25,1.14,1.18,0.645,0.706,0.688,0.698,0.544,0.45,0.524,0.514,0.511,0.545,0.894,0.945,0.938,0.98,0.917
HCC-78,0.915,0.75,0.706,0.764,1.01,0.372,0.362,0.365,0.358,0.299,0.79,0.913,0.728,0.705,0.537,0.553,0.468,0.574,0.47,0.439
NCI-H1395,1.13,1.05,1.13,1.16,1.57,0.617,0.728,0.702,0.826,0.523,1.12,0.933,1.1,0.968,0.685,1.14,1,1.05,1.08,0.741
NCI-H2126,0.861,0.816,0.828,0.892,0.891,0.79,0.689,0.631,0.71,0.58,0.635,0.526,0.539,0.506,0.342,0.712,0.691,0.743,0.574,0.49

# Reference: the supplement of paper PMC10307832
